The text below walks through data of patent US10610526B2 (priority 2015, dated 2020).

The Emax is the maximal effect, on the per cent scale that the assay sets.

In one data set the target is α4β2 nAChRs (Homo sapiens, UniProt P17787+P43681). Put plainly: cell-based. The class given is cell-based.
Data set [1] addresses T1, α3β4α5 nAChRs (Homo sapiens, UniProt P30926+P32297).
Another data set has as its target α7 nAChRs (Homo sapiens, UniProt P36544). Format: cell-based.
For data set [2], the target named is T2, α6/3β2β3 nAChRs (Homo sapiens, UniProt Q15825).
Data set [3] has as its target T2, α6/3β2β3 nAChRs. Briefly: cell-based. As to conditions: read-out: Agonist Effect Emax.
Data set [4] concerns the target T1, α3β4α5 nAChRs. Briefly: cell-based. The settings on record: read-out: Agonist Effect Emax.
The conditions of data set [5]: rat, in vivo; cited from earlier work.

Sequence of α4β2 nAChRs (P43681 29-627 limits assumed): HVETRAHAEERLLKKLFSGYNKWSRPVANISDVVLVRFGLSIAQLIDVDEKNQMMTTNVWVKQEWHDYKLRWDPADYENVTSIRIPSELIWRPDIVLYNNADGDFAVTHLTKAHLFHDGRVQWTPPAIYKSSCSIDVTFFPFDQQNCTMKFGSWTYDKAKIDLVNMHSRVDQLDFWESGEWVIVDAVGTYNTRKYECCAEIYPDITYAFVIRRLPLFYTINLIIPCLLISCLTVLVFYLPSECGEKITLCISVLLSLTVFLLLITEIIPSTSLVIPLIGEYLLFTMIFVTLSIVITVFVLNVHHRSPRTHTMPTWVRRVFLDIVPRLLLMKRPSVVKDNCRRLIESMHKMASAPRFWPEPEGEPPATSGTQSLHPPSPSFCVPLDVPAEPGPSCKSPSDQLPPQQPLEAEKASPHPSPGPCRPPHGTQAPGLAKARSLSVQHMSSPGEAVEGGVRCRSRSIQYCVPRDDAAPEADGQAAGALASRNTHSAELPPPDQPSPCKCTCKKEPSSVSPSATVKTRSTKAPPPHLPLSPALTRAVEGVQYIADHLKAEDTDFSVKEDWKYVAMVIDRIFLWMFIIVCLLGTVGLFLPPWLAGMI
Sequence of α4β2 nAChRs (P17787 26-502): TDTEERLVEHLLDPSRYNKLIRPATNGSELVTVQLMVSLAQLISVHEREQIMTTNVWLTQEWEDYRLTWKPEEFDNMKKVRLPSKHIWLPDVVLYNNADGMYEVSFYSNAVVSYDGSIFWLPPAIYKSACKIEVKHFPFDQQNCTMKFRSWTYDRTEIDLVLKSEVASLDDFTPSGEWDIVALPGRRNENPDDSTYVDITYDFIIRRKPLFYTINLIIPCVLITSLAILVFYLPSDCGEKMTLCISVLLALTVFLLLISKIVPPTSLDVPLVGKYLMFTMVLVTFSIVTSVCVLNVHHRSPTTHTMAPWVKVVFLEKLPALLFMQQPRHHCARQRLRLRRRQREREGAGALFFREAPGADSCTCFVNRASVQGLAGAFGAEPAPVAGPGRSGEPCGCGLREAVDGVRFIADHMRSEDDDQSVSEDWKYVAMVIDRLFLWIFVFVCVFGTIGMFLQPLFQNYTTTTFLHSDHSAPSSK
Sequence of α7 nAChRs (P36544 23-502): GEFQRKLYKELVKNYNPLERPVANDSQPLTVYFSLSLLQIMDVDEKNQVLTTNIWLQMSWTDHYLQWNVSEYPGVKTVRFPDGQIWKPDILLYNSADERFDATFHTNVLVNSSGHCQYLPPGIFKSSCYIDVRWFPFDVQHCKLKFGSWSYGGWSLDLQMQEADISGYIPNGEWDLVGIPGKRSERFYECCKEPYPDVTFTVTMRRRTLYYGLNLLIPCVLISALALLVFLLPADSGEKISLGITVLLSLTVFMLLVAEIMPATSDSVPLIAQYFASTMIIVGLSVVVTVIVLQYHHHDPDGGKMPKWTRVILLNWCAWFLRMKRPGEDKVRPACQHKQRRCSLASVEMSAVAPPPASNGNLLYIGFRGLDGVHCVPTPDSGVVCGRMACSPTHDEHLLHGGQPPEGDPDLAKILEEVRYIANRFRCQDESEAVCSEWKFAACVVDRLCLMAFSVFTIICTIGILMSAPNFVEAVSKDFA
T1 sequence (P32297 32-505): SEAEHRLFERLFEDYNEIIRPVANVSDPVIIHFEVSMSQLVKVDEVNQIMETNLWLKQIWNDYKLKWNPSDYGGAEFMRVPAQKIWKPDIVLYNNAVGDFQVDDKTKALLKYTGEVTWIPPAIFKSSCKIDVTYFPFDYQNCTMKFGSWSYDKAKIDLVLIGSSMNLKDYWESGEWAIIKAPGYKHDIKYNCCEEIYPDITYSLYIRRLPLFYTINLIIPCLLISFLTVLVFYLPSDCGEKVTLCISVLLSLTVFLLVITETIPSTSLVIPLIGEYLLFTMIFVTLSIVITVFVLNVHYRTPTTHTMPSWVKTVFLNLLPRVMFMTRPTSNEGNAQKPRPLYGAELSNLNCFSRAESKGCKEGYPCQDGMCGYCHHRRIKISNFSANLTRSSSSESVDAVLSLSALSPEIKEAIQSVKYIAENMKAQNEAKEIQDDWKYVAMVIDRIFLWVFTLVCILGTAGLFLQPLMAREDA
T1 sequence (P30926 22-498): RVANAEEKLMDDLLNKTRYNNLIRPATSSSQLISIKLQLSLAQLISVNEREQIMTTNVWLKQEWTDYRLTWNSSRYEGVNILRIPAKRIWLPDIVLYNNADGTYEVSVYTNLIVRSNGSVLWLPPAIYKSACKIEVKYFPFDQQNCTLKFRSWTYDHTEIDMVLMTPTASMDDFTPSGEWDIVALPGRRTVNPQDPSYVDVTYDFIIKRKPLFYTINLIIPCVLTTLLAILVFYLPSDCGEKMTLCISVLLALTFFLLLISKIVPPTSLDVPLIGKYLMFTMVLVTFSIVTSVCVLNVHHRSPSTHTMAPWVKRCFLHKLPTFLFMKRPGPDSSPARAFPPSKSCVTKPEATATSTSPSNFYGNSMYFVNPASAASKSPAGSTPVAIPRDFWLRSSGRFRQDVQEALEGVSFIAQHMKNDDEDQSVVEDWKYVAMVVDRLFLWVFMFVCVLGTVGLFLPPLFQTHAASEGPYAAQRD
T1 sequence (P30532 23-468 partner): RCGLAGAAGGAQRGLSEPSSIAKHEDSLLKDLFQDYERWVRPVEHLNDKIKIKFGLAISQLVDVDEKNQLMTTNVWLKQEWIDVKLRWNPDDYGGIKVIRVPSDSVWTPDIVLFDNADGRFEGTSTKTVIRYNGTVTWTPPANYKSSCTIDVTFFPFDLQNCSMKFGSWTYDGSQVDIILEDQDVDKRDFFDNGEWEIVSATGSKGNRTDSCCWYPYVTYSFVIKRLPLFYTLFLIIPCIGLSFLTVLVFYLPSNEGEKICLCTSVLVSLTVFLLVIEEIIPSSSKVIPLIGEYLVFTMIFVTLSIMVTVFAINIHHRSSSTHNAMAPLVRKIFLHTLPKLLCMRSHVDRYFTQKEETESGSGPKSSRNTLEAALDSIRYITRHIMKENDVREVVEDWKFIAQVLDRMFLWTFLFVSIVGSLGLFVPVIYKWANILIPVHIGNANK
T2 sequence (Q15825 26-239 limits assumed): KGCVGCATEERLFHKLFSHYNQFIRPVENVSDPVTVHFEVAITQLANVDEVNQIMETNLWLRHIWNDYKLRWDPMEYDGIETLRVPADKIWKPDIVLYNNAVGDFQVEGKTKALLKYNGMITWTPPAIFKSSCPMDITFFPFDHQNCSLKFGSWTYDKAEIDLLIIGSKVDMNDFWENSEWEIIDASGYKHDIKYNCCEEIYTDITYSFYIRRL
T2 sequence (P17787 26-238 limits assumed, further chain): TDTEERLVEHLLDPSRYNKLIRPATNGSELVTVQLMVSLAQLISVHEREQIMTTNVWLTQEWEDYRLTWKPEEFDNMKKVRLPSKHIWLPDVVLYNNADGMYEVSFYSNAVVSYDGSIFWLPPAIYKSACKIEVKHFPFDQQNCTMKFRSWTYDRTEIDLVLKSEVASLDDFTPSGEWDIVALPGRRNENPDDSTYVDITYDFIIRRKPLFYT
T2 sequence (Q05901 22-237 limits assumed, further chain): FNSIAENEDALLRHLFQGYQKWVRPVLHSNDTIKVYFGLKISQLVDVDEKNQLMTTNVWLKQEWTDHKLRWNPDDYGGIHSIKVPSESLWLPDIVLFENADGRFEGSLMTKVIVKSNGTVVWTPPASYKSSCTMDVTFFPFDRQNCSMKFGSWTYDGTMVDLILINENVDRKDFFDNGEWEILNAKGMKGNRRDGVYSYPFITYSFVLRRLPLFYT

On to `CN1CCC[C@H]1c1cccnc1` [Sigma-Aldrich S nicotine, S nicotine], for which the “Agonist Effect Hillslope” value at α4β2 nAChRs is listed as −0.84; on α3β4α5 nAChRs [1] it was −1.91; at α7 nAChRs it was −2.49; at α6/3β2β3 nAChRs [2] it was −0.69. The “Antagonist Effect Hillslope” value is 0.94 on α4β2 nAChRs, 1.38 at α3β4α5 nAChRs [1], 2.76 on α7 nAChRs and 0.96 at α6/3β2β3 nAChRs [2]. Besides, the “Agonist Effect Emax” value at α3β4α5 nAChRs [1] stood at 84%; at α6/3β2β3 nAChRs [2], 100%.

Regarding `CN1CCC[C@H]1c1cccnc1` [Alchem S nicotine, S nicotine], the “Agonist Effect Hillslope” value on α4β2 nAChRs is on record as −0.81; on α3β4α5 nAChRs [1], −1.46; at α7 nAChRs it was −3.15; at α6/3β2β3 nAChRs [2] it was −0.81. Besides, the “Antagonist Effect Hillslope” value stood at 1.01 at α4β2 nAChRs, 1.34 at α3β4α5 nAChRs [1], 3.06 at α7 nAChRs and 0.97 at α6/3β2β3 nAChRs [2]. The “Agonist Effect Emax” value is given as 87% at α3β4α5 nAChRs [1] and 95% at α6/3β2β3 nAChRs [2].

`CN1CCC[C@H]1c1cccnc1` [Synthetic S nicotine, S nicotine]: the “Agonist Effect Hillslope” value is listed as −1.48 at α3β4α5 nAChRs [1] and −0.70 on α6/3β2β3 nAChRs [2]. Besides, the “Antagonist Effect Hillslope” value at α3β4α5 nAChRs [1] was 1.11; at α6/3β2β3 nAChRs [2], 1.10. For the same molecule, the Emax on α6/3β2β3 nAChRs [3] came to 97%; on α3β4α5 nAChRs [4], 96%.

On to `CN1CCC[C@@H]1c1cccnc1` [Synthetic R nicotine, R nicotine], for which, at α4β2 nAChRs, the “Agonist Effect Hillslope” value is on record as −0.87, the “Antagonist Effect Hillslope” value came to 0.67 and the “agonist character at human α4β2 nAChRs” value is recorded as “partial agonist”. The Emax on α4β2 nAChRs (read-out: Agonist Effect Emax) was found to be 28%. At α3β4α5 nAChRs [1], the “Agonist Effect Hillslope” value is −2.37; the “Antagonist Effect Hillslope” value stood at 0.95; the “agonist character at human α3β4α5 nAChRs” value is “partial, weak agonist”. The Emax at α6/3β2β3 nAChRs [3] is 70%. Also, at α7 nAChRs, the “Agonist Effect Hillslope” value is given as −2.37; the “Antagonist Effect Hillslope” value stood at 2.55; the “agonist character at human α7 nAChRs” value was “full, weak agonist”. Also, on α6/3β2β3 nAChRs [2], the “Agonist Effect Hillslope” value is reported as −0.92; the “Antagonist Effect Hillslope” value was 1.07; the “agonist character at human α6/3β2β3 nAChRs” value is reported as “full, weak agonist”. The Emax on α3β4α5 nAChRs [4] is 21%.

`CN1CCCC1c1cccnc1` (stereo not drawn) [Ref. nicotine (Sigma-Aldrich), nicotine]: the “Agonist Effect Hillslope” value is −0.80 on α4β2 nAChRs, −1.48 at α3β4α5 nAChRs [1], −2.23 at α7 nAChRs and −0.74 at α6/3β2β3 nAChRs [2]. In addition, the “Antagonist Effect Hillslope” value on α4β2 nAChRs was found to be 0.85; on α3β4α5 nAChRs [1], 1.59; on α6/3β2β3 nAChRs [2], 0.72. For the same molecule, the Emax at α6/3β2β3 nAChRs [3] and on α3β4α5 nAChRs [4] was 100% in each case.

In the case of `CN1CCCC1c1cccnc1` (racemic) [Synthetic RS racemic nicotine, RS-Nicotine], the “Agonist Effect Hillslope” value is reported as −2.13 at α3β4α5 nAChRs [1] and −0.67 on α6/3β2β3 nAChRs [2]. The “Antagonist Effect Hillslope” value at α3β4α5 nAChRs [1] was determined as 1.52; on α6/3β2β3 nAChRs [2], 1.36. Moreover, the Emax on α6/3β2β3 nAChRs [3] was determined as 91%; at α3β4α5 nAChRs [4], 65%.

Consider `CN1CCCC1c1cccnc1` (stereo not drawn) [synthetic nicotine, nicotine], for which, in data set [5], the carcinogenicity entry was “not carcinogenic”.
